According to patent US20110104256A1, “METHODS FOR TREATING OR PREVENTING COLORECTAL CANCER” (priority 2008, published 2011):
Marks after values point to notes of the source that are not given here.

System: WiDr human colorectal adenocarcinoma cells
Test: Inhibition of colorectal tumor growth in WiDr xenograft model
Type: in vivo, nude mouse (nu/nu)
Details: for % Growth Inhibition: WiDr xenograft, nude mice
Text: In these experiments, 5 million WiDr human colorectal adenocarcinoma cells, mixed 1:1 with Matrigel, were inoculated subcutaneously to the flank of each nude mouse (nu/nu).

[1] = Day 10 post inoculation, 0.5 mg anti-IGF1R IP 2x/week, 40 mpk Sunitinib PO QD (Table 6)
[2] = Day 14 post inoculation, 0.5 mg anti-IGF1R IP 2x/week, 40 mpk Sunitinib PO QD (Table 6)
[3] = Day 17 post inoculation, 0.5 mg anti-IGF1R IP 2x/week, 40 mpk Sunitinib PO QD (Table 6)
[4] = Day 21 post inoculation, 0.5 mg anti-IGF1R IP 2x/week, 40 mpk Sunitinib PO QD (Table 6)
[5] = Day 24 post inoculation, 0.5 mg anti-IGF1R IP 2x/week, 40 mpk Sunitinib PO QD (Table 6)
[6] = Day 28 post inoculation, 0.5 mg anti-IGF1R IP 2x/week, 40 mpk Sunitinib PO QD (Table 6)
[7] = Day 35 post inoculation, 0.5 mg anti-IGF1R IP 2x/week, 40 mpk Sunitinib PO QD (Table 6)
[8] = 0.5 mg anti-IGF1R IP 2x/week, 40 mpk Sunitinib PO QD (Table 5)

“anti-IGF1R: anti-IGF1R antibody with 15H12/19D12 immunoglobulin light chain-F (LCF, κ) and heavy chain-A (HCA, γ1)” gave a Mean tumor volume [1] of 93.1 mm^3, a Mean tumor volume (Day 10 post inoculation, 0.5 mg anti-IGF1R, 10 mpk Leucovorin/60 mpk 5-FU, IP 2x/week (Table 3)) of 93.1 mm^3 and a Mean tumor volume [2] of 148.0 mm^3. It also gave a Mean tumor volume (Day 14 post inoculation, 0.5 mg anti-IGF1R, 10 mpk Leucovorin/60 mpk 5-FU, IP 2x/week (Table 3)) of 148.0 mm^3, a Mean tumor volume [3] of 192.0 mm^3 and a Mean tumor volume (Day 17 post inoculation, 0.5 mg anti-IGF1R, 10 mpk Leucovorin/60 mpk 5-FU, IP 2x/week (Table 3)) of 192.0 mm^3. It also gave a Mean tumor volume [4] of 254.1 mm^3, a Mean tumor volume (Day 21 post inoculation, 0.5 mg anti-IGF1R, 10 mpk Leucovorin/60 mpk 5-FU, IP 2x/week (Table 3)) of 254.1 mm^3 and a Mean tumor volume [5] of 317.0 mm^3. It also gave a Mean tumor volume (Day 24 post inoculation, 0.5 mg anti-IGF1R, 10 mpk Leucovorin/60 mpk 5-FU, IP 2x/week (Table 3)) of 317.0 mm^3, a Mean tumor volume [6] of 403.1 mm^3 and a Mean tumor volume (Day 28 post inoculation, 0.5 mg anti-IGF1R, 10 mpk Leucovorin/60 mpk 5-FU, IP 2x/week (Table 3)) of 403.1 mm^3. For the same compound, the Mean tumor volume (Day 31 post inoculation, 0.5 mg anti-IGF1R IP 2x/week, 40 mpk Sunitinib PO QD (Table 6)) was 474.5 mm^3, the Mean tumor volume (Day 31 post inoculation, 0.5 mg anti-IGF1R, 10 mpk Leucovorin/60 mpk 5-FU, IP 2x/week (Table 3)) was 474.5 mm^3 and the Mean tumor volume [7] was 577.6 mm^3. For the same compound, the Mean tumor volume (Day 35 post inoculation, 0.5 mg anti-IGF1R, 10 mpk Leucovorin/60 mpk 5-FU, IP 2x/week (Table 3)) was 577.6 mm^3, the “% Growth Inhibition” value [8] was 30% and the “% Growth Inhibition” value (0.5 mg anti-IGF1R IP 2x/week, 60 mpk 5-FU/10 mpk Leucovorin IP 2x/week (Table 2)) was 30%.

Compound `CCN(CC)CCNC(=O)c1c(C)[nH]c(/C=C2\C(=O)Nc3ccc(F)cc32)c1C` [Sunitinib, sunitinib, reference compound] has a Mean tumor volume [1] of 95.8 mm^3, a Mean tumor volume [2] of 125.4 mm^3 and a Mean tumor volume [3] of 143.1 mm^3. The Mean tumor volume [4] was 175.6 mm^3, the Mean tumor volume [5] was 194.8 mm^3 and the Mean tumor volume [6] was 205.9 mm^3. For the same compound, the Mean tumor volume [7] was 238.6 mm^3 and the “% Growth Inhibition” value [8] was 79^a %.
